Experimental data taken from patent publication US11835499B2, “Methods of quantifying methylglyoxal-induced nucleic acid adducts” (CITY OF HOPE, priority 2018, dated 2023).

Tests used:
[1] = Stability of CEdG in acidic solution (acid-catalyzed depurination and sidechain isomerization); format: physicochemical; conditions: acidic hydrolysis, 1 M AcOH at 37° C.
Method: A 1.25 mM solution of CEdG-A, B or dG in 100 μL of 1M AcOH (pH 2.4) was stirred at 37° C. Aliquots (10 μl) were removed periodically and added to 40 μL of 2M TEAA (pH 7.0). HPLC product analyses were performed using an Alltech HS HyperPrep 100 BDS C18 8μ column. A gradient of 0 to 4% CH3CN over 5 min was followed by 6.5% CH3CN over 30 min. TEAA (pH 7) was kept constant at 50 mM. The ratio of free base (CEGuanine or Guanine) to intact nucleoside (CEdG or dG) was calculated by integration of the corresponding HPLC peaks (see inset in FIG. 4). The CEG free base was identified as Peak A by ESI-MS in negative ion mode. C8H8O3N5, observed: m/z 222.064; calculated: m/z 222.063.
The chemical stability of CEdG was examined as an important criterion for evaluating its suitability as a quantitative biomarker. Purified stereoisomers of synthetic CEdG were subjected to acidic conditions (1 M AcOH at 37° C.) and the extent of released free base and diastereomer interconversion was monitored by HPLC as a function of time.

calf thymus DNA = experiment: Artifactual CEdG formation in calf thymus DNA during workup, with carbonyl scavenger
Method: Calf thymus or tissue-extracted DNA (100 μg) was dissolved in 80 μL of autoclaved 18.2 MΩ H2O containing 20 μL of sodium acetate (100 mM, pH 5.5), 20 μL of 1×TBE, 1.5 μL of 50 mM ZnCl2, and 2.37 μL of a 100 mM AG or D-P stock solution. DNA was denatured at 95° C. for 5 min on a PCR heating block and then brought to 4° C. for 5 min. After equilibration to 45° C., 1.5 μL of 10 U/μL nuclease P1 was added. Alkaline phosphatase (4 μL of 8 U/μL), 1 U of bovine phosphodiesterase, and 14 μL of 100 mM CaCl2 were added after 1 hour, and the hydrolysis/dephosphorylation was continued for another 7 hours. […] DNA concentrations were determined by UV spectroscopy (1 OD260=50 μg/ml) and samples were stored at −80° C. prior to MS analyses. A 5 μL aliquot of digest was diluted to 200 μL and used for quantitation of 2′-deoxyguanosine by HPLC integration using a Beckman C18 reverse phase (25 cm×4.6 mm) column (Fullerton, CA). […]
Commercial grade calf thymus DNA was used as a model substrate for developing a protocol for CEdG quantitation in double-stranded DNA. […] Concentrations of AG from 0.5 to 50 mM were added prior to workup, and CEdG levels were measured in order to determine the optimal concentration required to achieve stable, reproducible levels. […]

[2] = test system: DNA extracted from breast tumor or adjacent tissue; experiment: Artifactual CEdG formation during DNA extraction from human breast tumor and adjacent tissue, with carbonyl scavenger; conditions: 10 mM D-penicillamine in two aliquots during cell lysis/DNA isolation and hydrolysis/dephosphorylation
Method: Breast tumor and adjacent normal tissue were obtained from the frozen tumor bank of the City of Hope Pathology Core. A pea-sized section (˜100 mg) of tissue was minced and suspended in 1.2 mL of digestion buffer (100 mM NaCl, 10 mM Tris HCl, pH 8, 25 mM EDTA, pH 8, 0.5% SDS, 0.2 mg/mL proteinase K, 10 mM D-penicillamine) and incubated at 50° C. in a water bath for 12-18 h. DNA was then extracted using an equivalent volume of phenol/chloroform/isoamyl alcohol (25:24:1). The aqueous fraction was separated and 0.5 volumes of ammonium acetate and 2 volumes of 100% ethanol were added. The DNA was spooled, washed twice with 70% ethanol, pelleted, and resuspended in autoclaved 18.2 MΩ water. The enzymatic hydrolysis was carried out as described above.
Levels of CEdG in DNA extracted from either breast tumor or adjacent tissue in the absence of carbonyl scavenger were ˜1.5-2.0-fold higher; however, artifactual formation was inhibited by the addition of 10 mM D-penicillamine in two aliquots during both the cell lysis/DNA isolation and hydrolysis/dephosphorylation steps. ^15N-enriched isotopomers of CEdG differing from the unlabeled adducts by 5 amu were synthesized, which provided sufficient mass resolution for accurate and reproducible quantitation using the stable isotope dilution method.

## CC(Nc1nc2c(ncn2[C@H]2C[C@H](O)[C@@H](CO)O2)c(=O)[nH]1)C(=O)O (single isomer, unassigned) [CEdG-A, N^2-(1-carboxyethyl)-2′-deoxyguanosine]
[1]
  racemization of the sidechain stereocenter / interconversion of CEdG isomers A and B: No racemization

## CC(Nc1nc2c(ncn2[C@H]2C[C@H](O)[C@@H](CO)O2)c(=O)[nH]1)C(=O)O (single isomer, unassigned) [CEdG-B, N^2-(1-carboxyethyl)-2′-deoxyguanosine]
[1]
  racemization of the sidechain stereocenter / interconversion of CEdG isomers A and B: No racemization

## N=C(N)NN [AG, aminoguanidine]
Calf thymus DNA; 10 mM AG added prior to sample processing, without scavenger 60-66 CEdG/10^6 dG
  CEdG adduct levels after hydrolysis/dephosphorylation: 45-50 CEdG/10^6 guanines
Calf thymus DNA; 10 mM AG in two aliquots, without scavenger 80-100 CEdG/10^6 guanines
  CEdG levels after mock proteolysis and hydrolysis/dephosphorylation: drop in measured CEdG levels

## CC(C)(S)[C@@H](N)C(=O)O [D-penicillamine]
[2]
  artifactual CEdG formation: inhibited
